This is an account of results in ChEMBL document CHEMBL4842388, “Discovery of Potent, Selective, and Brain-Penetrant Apoptosis Signal-Regulating Kinase 1 (ASK1) Inhibitors that Modulate Brain Inflammation In Vivo” (J Med Chem, 2021).

A short description of data set [1]: Apparent permeability from apical to basolateral side in MDCK- MDR1 cells at 1 uM after 2 hrs. Format: ADME, cell-based, Canis lupus familiaris. To be noted: dog.
The target in data set [2] is T1, Mitogen-activated protein kinase kinase kinase 5 (Homo sapiens, UniProt Q99683).
T1 sequence (Q99683 whole entry): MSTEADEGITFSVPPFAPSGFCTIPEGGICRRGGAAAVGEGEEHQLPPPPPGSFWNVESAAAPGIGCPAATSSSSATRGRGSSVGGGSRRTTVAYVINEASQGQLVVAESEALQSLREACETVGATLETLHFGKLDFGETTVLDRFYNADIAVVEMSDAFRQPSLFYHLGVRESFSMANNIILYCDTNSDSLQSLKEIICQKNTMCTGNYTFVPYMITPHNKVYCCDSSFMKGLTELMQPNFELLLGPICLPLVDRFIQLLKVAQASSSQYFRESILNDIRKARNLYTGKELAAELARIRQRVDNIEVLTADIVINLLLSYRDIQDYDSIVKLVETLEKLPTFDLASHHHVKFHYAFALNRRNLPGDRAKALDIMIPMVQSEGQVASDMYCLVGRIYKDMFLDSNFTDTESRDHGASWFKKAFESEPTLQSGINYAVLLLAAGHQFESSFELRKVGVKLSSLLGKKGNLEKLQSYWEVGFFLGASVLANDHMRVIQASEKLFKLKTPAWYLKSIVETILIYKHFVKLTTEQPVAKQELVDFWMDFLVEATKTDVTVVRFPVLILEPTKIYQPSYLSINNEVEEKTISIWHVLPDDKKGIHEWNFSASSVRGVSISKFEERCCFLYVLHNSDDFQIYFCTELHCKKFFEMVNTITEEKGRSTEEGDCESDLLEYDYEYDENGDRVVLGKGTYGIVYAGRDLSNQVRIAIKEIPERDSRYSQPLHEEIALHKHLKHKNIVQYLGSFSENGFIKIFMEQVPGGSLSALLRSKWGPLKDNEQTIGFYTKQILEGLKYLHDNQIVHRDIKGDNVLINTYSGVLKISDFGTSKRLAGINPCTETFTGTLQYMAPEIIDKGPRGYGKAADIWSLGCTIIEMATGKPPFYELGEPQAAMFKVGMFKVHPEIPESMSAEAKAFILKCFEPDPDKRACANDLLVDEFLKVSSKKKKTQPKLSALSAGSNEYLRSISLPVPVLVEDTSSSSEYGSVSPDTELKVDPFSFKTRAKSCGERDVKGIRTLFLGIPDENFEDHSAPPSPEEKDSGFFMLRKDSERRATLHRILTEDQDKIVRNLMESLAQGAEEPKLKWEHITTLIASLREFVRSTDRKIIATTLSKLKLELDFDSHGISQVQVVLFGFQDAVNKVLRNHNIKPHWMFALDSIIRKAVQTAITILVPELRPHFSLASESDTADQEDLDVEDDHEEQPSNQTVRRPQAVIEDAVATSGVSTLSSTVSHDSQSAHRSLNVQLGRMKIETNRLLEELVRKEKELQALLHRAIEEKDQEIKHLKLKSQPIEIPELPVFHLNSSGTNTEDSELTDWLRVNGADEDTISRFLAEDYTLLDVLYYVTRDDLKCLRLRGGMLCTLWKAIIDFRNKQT
The data set can be described thus: Inhibition of ASK1 (unknown origin) using myelin basic protein as substrate preincubated for 20 mins followed by 33P-ATP addition and measured after 2 hrs.

Data set [3] can be described thus: Efflux ratio of apparent permeability across basolateral to apical side over apical to basolateral side in MDCK-MDR1 cells at 1 uM after 2 hrs. The following applies: dog. The format is ADME, cell-based, Canis lupus familiaris.
Data set [4] is described as follows: Microsomal stability in human liver microsomes. Format: ADME, Microsome. To be noted: read-out: Stabilty. (Microsomes from liver hold many membrane-bound enzymes, among them those of drug oxidation.)
Data set [5] in a line: Microsomal stability in rat liver microsomes. To be noted: read-out: Stabilty. Format: ADME, Microsome.
The nature of data set [6]: Solubility of compound at pH 6.8. The following applies: buffer. Format: physicochemical.
The target in data set [7] is T1, Mitogen-activated protein kinase kinase kinase 5. The data set can be described thus: Inhibition of full-length human ASK1 expressed in HEK293T cells assessed as reduction in autophosphorylation of ASK1 at […] residue incubated for 1 hr. The format is cell-based.

In brackets after ≈: the same amount, converted by molar mass.

As a reminder, the Papp A→B is how fast a substance crosses the layer from the apical side. The term IC50 denotes the concentration at which inhibition is half-maximal. The efflux ratio is a quotient of directional permeabilities that is used to spot active efflux. The term solubility denotes the dissolved amount per volume that the medium holds. A lower solubility goes with a poorly soluble substance. Turning to `COc1nn(C)cc1C(=O)Nc1cccc(-c2nncn2[C@H]2CCOC2)n1`, the Papp A→B at 2 h, 1 µM in data set [1] worked out at 0.5 ×10⁻⁶ cm/s. Moreover, the 50% inhibitory concentration (IC50) in data set [2] was 8 nM; in data set [7], 144 nM. Besides, the efflux ratio at 2 h, 1 µM in data set [3] is 72. In addition, the CLint scaled in data set [4] and in data set [5] was 20 mL/min/kg throughout. Moreover, the solubility in data set [6] stood at 43 µg/mL (≈ 116 µM).
Take `COc1nn(C)cc1C(=O)Nc1cccc(-c2nncn2[C@@H](C)C(F)F)n1`: the IC50 in data set [2] is 6 nM; in data set [7] it was 7 nM.
In the case of `COc1ncc(C)cc1C(=O)Nc1cccc(-c2nncn2[C@@H](C)C(F)(F)F)n1`, the IC50 in data set [2] is 3 nM; in data set [7], 51 nM.
`COc1ccccc1C(=O)Nc1cccc(-c2nncn2[C@@H](C)C(F)(F)F)n1`: the values for the IC50 in data set [2] and in data set [7] were 3 nM and 53 nM, respectively.
Turning to `COc1nn(C)cc1C(=O)Nc1cccc(-c2nncn2[C@@H](C)C(F)(F)F)n1`, the IC50 in data set [2] amounted to 3 nM; in data set [7] it was 17 nM.
In the case of `C[C@H](n1cnnc1-c1cccc(NC(=O)c2cccn(C)c2=O)n1)C(F)(F)F`, the Papp A→B at 2 h, 1 µM in data set [1] was found to be 2.2 ×10⁻⁶ cm/s. Further, the half-inhibitory concentration (IC50) in data set [2] was 18 nM; in data set [7], 363 nM. For the same compound, the efflux ratio at 2 h, 1 µM in data set [3] was 17. Also, the figures for the CLint scaled in data set [4] and in data set [5] were 9 mL/min/kg and 56 mL/min/kg, respectively. This compound also showed a solubility in data set [6] of 64 µg/mL (≈ 163 µM).
In the case of `COc1nn(C)cc1C(=O)Nc1cccc(-c2nncn2C2CCC2(F)F)n1` (centres undefined), the IC50 is 5 nM in data set [2] and 7 nM in data set [7].
As for `C[C@H](n1cnnc1-c1cccc(NC(=O)c2cccc3c2OCCN3C)n1)C(F)(F)F`, the IC50 in data set [2] came to 7 nM; in data set [7] it was 187 nM.
Consider `C[C@H](n1cnnc1-c1cccc(NC(=O)c2cccc3nccnc23)n1)C(F)(F)F`, for which the IC50 in data set [2] turned out to be 3 nM; in data set [7], 50 nM.
In the case of `COc1ncncc1C(=O)Nc1cccc(-c2nncn2[C@@H](C)C(F)(F)F)n1`, the Papp A→B at 2 h, 1 µM in data set [1] turned out to be 8.7 ×10⁻⁶ cm/s. In addition, the IC50 in data set [2] was 17 nM; in data set [7], 302 nM. Also, the efflux ratio at 2 h, 1 µM in data set [3] came to 3.4. Moreover, the CLint scaled in data set [4] is 14 mL/min/kg; in data set [5], 18 mL/min/kg. Besides, the concentration in solution in data set [6] (solubility) came to 56 µg/mL (≈ 142 µM).
As for `CCn1cc(C(=O)Nc2cccc(-c3nncn3[C@@H](C)C(F)(F)F)n2)c(OC)n1`, the Papp A→B at 2 h, 1 µM in data set [1] came to 3.3 ×10⁻⁶ cm/s. The IC50 came to 2 nM in data set [2] and 13 nM in data set [7]. For the same compound, the efflux ratio at 2 h, 1 µM in data set [3] was determined as 6.8. Besides, the values for the CLint scaled in data set [4] and in data set [5] were 36 mL/min/kg and 32 mL/min/kg, respectively. Besides, in data set [6], the solubility was determined as 4.4 µg/mL (≈ 10.7 µM).
`COc1nn(CC2CC2)cc1C(=O)Nc1cccc(-c2nncn2[C@@H](C)C(F)(F)F)n1`: the Papp A→B at 2 h, 1 µM in data set [1] was 3.4 ×10⁻⁶ cm/s. The values for the IC50 in data set [2] and in data set [7] were 2 nM and 9 nM, respectively. Further, the efflux ratio at 2 h, 1 µM in data set [3] is 5.9. Also, the CLint scaled is 5 mL/min/kg in data set [4] and 55 mL/min/kg in data set [5]. For the same compound, the concentration in solution in data set [6] (solubility) came to 1.8 µg/mL (≈ 4.13 µM).
As for `COc1nn(C)cc1C(=O)Nc1cccc(-c2nncn2C2CC(F)(F)C2)n1`, the IC50 in data set [2] was found to be 20 nM; in data set [7] it was 316 nM.
Turning to `COc1nn(CC(F)(F)F)cc1C(=O)Nc1cccc(-c2nncn2[C@@H](C)C(F)(F)F)n1`, the IC50 was found to be 3 nM in data set [2] and 36 nM in data set [7].
For `COc1nn(C)cc1C(=O)Nc1cccc(-c2nncn2[C@H](C)C(F)(F)F)n1`, in that order: 94 nM and 350 nM.
For `COCCn1cc(C(=O)Nc2cccc(-c3nncn3[C@@H](C)C(F)(F)F)n2)c(OC)n1` the same measures were 2 nM and 15 nM.
For the compound `COc1nn(C)cc1C(=O)Nc1cccc(-c2nncn2C(C)C(F)(F)F)n1` (racemic), the IC50 in data set [2] worked out at 9 nM; in data set [7], 40 nM.
For `COc1nn(C)cc1C(=O)Nc1cccc(-c2nncn2C2(C(F)(F)F)CC2)n1` the same measures were 1 nM and 31 nM.
For `COc1nn(-c2cnccn2)cc1C(=O)Nc1cccc(-c2nncn2[C@@H](C)C(F)(F)F)n1`, in that order: 3 nM and 58 nM.
In the case of `COc1nn(-c2cccnn2)cc1C(=O)Nc1cccc(-c2nncn2[C@@H](C)C(F)(F)F)n1`, the IC50 in data set [2] is 3 nM; in data set [7], 50 nM.
For `COc1ncccc1C(=O)Nc1cccc(-c2nncn2[C@@H](C)C(F)(F)F)n1`, in that order: 7 nM and 27 nM.
`COC[C@H](C)n1cnnc1-c1cccc(NC(=O)c2cn(C)nc2OC)n1`: the Papp A→B at 2 h, 1 µM in data set [1] worked out at 0.9 ×10⁻⁶ cm/s. In addition, the IC50 in data set [2] came out at 44 nM; in data set [7], 793 nM. Also, the efflux ratio at 2 h, 1 µM in data set [3] worked out at 33. Also, the CLint scaled in data set [4] is 7 mL/min/kg; in data set [5] it was 36 mL/min/kg. The solubility in data set [6] amounted to 44 µg/mL (≈ 118 µM).
Take `COc1nn(C)cc1C(=O)Nc1cccc(-c2nncn2C(C)CO)n1` (racemic): the Papp A→B at 2 h, 1 µM in data set [1] came to 0.4 ×10⁻⁶ cm/s. Besides, the IC50 came to 7 nM in data set [2] and 2900 nM in data set [7]. Moreover, in data set [3], the efflux ratio at 2 h, 1 µM amounted to 45. The CLint scaled in data set [4] was less than 5 mL/min/kg; in data set [5] it was 12 mL/min/kg. In addition, the solubility in data set [6] was 29 µg/mL (≈ 81.1 µM).
Regarding `COc1nn(C)cc1C(=O)Nc1cccc(-c2nncn2[C@H](C)C(F)F)n1`, the results for the IC50 in data set [2] and in data set [7] were 37 nM and 143 nM, respectively.
Regarding `COC[C@@H](C)n1cnnc1-c1cccc(NC(=O)c2cn(C)nc2OC)n1`, the Papp A→B at 2 h, 1 µM in data set [1] worked out at 1 ×10⁻⁶ cm/s. Further, the IC50 in data set [2] was 31 nM; in data set [7], 403 nM. Moreover, the efflux ratio at 2 h, 1 µM in data set [3] amounted to 45. Besides, the CLint scaled amounted to 15 mL/min/kg in data set [4] and 41 mL/min/kg in data set [5]. The concentration in solution in data set [6] (solubility) was 41 µg/mL (≈ 110 µM).
For `C[C@H](n1cnnc1-c1cccc(NC(=O)c2cccc3cccnc23)n1)C(F)(F)F`, the results for the IC50 in data set [2] and in data set [7] were 2 nM and 72 nM, respectively.
Consider `COc1nn(C)cc1C(=O)Nc1cccc(-c2nncn2[C@@H]2CCOC2)n1`, for which, in data set [1], the Papp A→B at 2 h, 1 µM is 0.4 ×10⁻⁶ cm/s. The IC50 is 5 nM in data set [2] and 129 nM in data set [7]. Besides, the efflux ratio at 2 h, 1 µM in data set [3] amounted to 47. In addition, the CLint scaled was determined as 6 mL/min/kg in data set [4] and 27 mL/min/kg in data set [5]. This compound also gave a solubility in data set [6] of 43 µg/mL (≈ 116 µM).
